Laboratory results from patent publication US11701394B2, “Compositions and methods for treating cholestatic disease” (Seres Therapeutics, Inc., priority 2017, dated 2023).

Columns and labels:
human FXR = target: T1, human FXR (Homo sapiens, UniProt Q96RI1); settings: in the presence of 50 uM CDCA
T1 sequence (Q96RI1 262-486 limits assumed): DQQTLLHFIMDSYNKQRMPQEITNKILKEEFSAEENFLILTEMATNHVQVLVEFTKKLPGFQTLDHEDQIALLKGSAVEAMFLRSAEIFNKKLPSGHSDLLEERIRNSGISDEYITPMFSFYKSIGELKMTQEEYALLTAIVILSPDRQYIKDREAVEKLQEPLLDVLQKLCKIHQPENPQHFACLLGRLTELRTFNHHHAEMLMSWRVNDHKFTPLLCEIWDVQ
Procedure: FXR reporter cell assays were performed by Indigo Biosciences as directed by Seres Therapeutics using Indigo's FXR reporter CHO cell line, which expresses an FXR receptor hybrid in which the native N-terminal DNA binding domain (DBD) has been replaced with that of a yeast Gal4 DBD. The reporter gene, firefly luciferase, is functionally linked to a Gal4 upstream activation sequence (UAS). […] Luminescence was determined following incubation with substrate and a detection reagent. In addition, live cell count was determined within the assay using a Live Cell Multiplex (LCM) Assay (Indigo Biosciences).

FXR = FXR signaling in mice: CYP7A1 (liver) and FGF-15 (ileum) expression
Source text: We therefore tested a dose range of OCA as well as a fixed concentration of CA for their effects on FXR signaling in mice. Ileal and liver FXR signaling was monitored based on the expression of CYP7A1 (liver) and FGF-15 (Ileum).

| SMILES | hFXR activation in combination with CDCA (human FXR) | CYP7A1 expression (liver) (FXR) | FGF-15 levels (ileum) (FXR) |
| --- | --- | --- | --- |
| C[C@H](CCC(=O)O)[C@H]1CC[C@H]2[C@@H]3[C@H](O)[C@H](O)[C@@H]4C[C@H](O)CC[C@]4(C)[C@H]3CC[C@]12C [HCA, hyocholic acid] | activated human FXR in a dose-dependent and synergistic manner |  |  |
| CC[C@H]1[C@@H](O)[C@@H]2[C@H](CC[C@]3(C)[C@@H]([C@H](C)CCC(=O)O)CC[C@@H]23)[C@@]2(C)CC[C@@H](O)C[C@@H]12 [OCA, obeticholic acid] |  | dose dependent decrease in CYP7A1 expression | increase in FGF-15 levels |
| C[C@H](CCC(=O)O)[C@H]1CC[C@H]2[C@@H]3[C@H](O)C[C@@H]4C[C@H](O)CC[C@]4(C)[C@H]3C[C@H](O)[C@]12C [cholic acid] |  | decreased CYP7A1 expression | increased FGF-15 levels in the ileum |
